{"source": "patent US20230398125A1", "about": "“TREATING HEPATITIS” (Albireo AB, priority 2022, published 2023)", "key": {"[1]": {"experiment": "Pharmacokinetic phase: plasma exposure after oral dosing in non-infected PXB mice", "type": "in vivo", "conditions": "for concentration at 0.5 h / concentration at 1 h / concentration at 2 h / concentration at 4 h / concentration at 6 h / concentration at 24 h: PXB, mouse, plasma, po", "protocol": "Thirty microliters (30 μL) of blood were collected from all animals under isoflurane anesthesia via the retro-orbital plexus/sinus using sodium heparin-coated calibrated pipettes according to the collection schedule shown in Table 7. The individual blood samples of the animals were transferred to labeled microtubes and stored under chilled conditions until centrifugation at 3500×g, 5° C. for 10 minutes to obtain plasma. Individual plasma samples were transferred into separately labeled microtubes and snap frozen in liquid nitrogen. The plasma exposure of Compound 1 from the pharmacokinetic phase was measured via LC/MS- MS. The lower limit of quantitation was 1 ng/mL."}, "[2]": {"molecular_target": "T1, ASBT (Homo sapiens, UniProt Q12908)", "T1 construct": "expressed in transfected cells", "T1 sequence (Q12908 1-348)": "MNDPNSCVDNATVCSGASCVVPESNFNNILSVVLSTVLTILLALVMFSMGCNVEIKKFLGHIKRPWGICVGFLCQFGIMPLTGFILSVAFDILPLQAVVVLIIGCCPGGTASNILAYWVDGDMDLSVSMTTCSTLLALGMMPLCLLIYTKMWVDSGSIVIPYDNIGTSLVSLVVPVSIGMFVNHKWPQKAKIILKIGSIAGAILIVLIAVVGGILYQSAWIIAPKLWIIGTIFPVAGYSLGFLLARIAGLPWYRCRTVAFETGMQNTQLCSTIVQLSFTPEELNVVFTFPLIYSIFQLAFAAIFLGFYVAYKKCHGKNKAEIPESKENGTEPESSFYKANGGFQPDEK", "experiment": "[3H]taurocholate uptake, apparent Ki for ASBT", "type": "cell-based", "conditions": "read-out: inhibitory constant (Ki) for ASBT"}, "[3]": {"molecular_target": "T2, Human NTCP (Homo sapiens, UniProt Q14973)", "T2 construct": "expressed in transfected cells; peptide purchased from Pharmaron", "T2 sequence (Q14973 1-349)": "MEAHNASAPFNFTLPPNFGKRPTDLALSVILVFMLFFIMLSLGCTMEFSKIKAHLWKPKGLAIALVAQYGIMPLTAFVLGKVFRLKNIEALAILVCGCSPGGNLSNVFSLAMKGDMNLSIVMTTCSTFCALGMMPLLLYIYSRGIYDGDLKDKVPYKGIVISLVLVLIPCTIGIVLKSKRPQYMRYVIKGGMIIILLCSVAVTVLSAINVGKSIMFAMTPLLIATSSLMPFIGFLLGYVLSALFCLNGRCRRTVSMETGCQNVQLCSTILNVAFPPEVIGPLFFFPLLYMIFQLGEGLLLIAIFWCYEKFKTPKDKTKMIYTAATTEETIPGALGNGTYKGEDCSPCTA", "experiment": "Time course of dissociation (washout), [3H]taurocholate uptake in hNTCP CHO cells", "type": "cell-based", "conditions": "1 μM for 15 min, 6 hours postwashout; read-out: inhibition of human NTCP BA transport activity after washout", "protocol": "This study was performed using a [^3H]taurocholate uptake assay protocol. Stably transfected CHO cells expressing human NTCP (hNTCP) were seeded onto 24 well plates at a density of 1.5-2.0×10^5 cells/well in CHO cell media (DMEM/F12 media supplemented with 10% FBS, Penicillin/Streptomycin) plus Geneticin (G418) to maintain selection in culture. After overnight incubation, the media was replaced, and CHO cells were treated with 10 mM sodium butyrate to induce transporter expression (final concentration=[…]). Twenty-four h later, the media was removed, and cells were washed with warm (37° C.) Hanks balanced salt solution (HBSS) containing sodium (Na+). Cells were then incubated with 1 μM of the test inhibitors or vehicle (DMSO) for 15 min in CHO cell media at 37° C. […]\nFor the [^3H]taurocholate uptake assay, the media was aspirated at the end of each washout period, and cells were washed three times with warm Hanks balanced salt solution (HBSS) containing sodium (Na+). […] Duplicate 100 μL aliquots of the lysate were transferred to vials with scintillation liquid and counted after neutralization and overnight quenching. Cell-associated protein was measured in duplicate using the BCA protein assay, and cell-associated radioactivity was normalized to protein content."}, "[4]": {"conditions": "10 mg/kg, non-infected PXB mice, 10 mg/kg p.o., animal 101, read-out: Plasma conc."}, "[5]": {"conditions": "10 mg/kg, non-infected PXB mice, 10 mg/kg p.o., animal 102, read-out: Plasma conc."}, "[6]": {"conditions": "10 mg/kg, non-infected PXB mice, 10 mg/kg p.o., animal 103, read-out: Plasma conc."}, "[7]": {"conditions": "10 mg/kg, non-infected PXB mice, 10 mg/kg p.o., mean of 3 animals, read-out: Plasma conc. Mean ± SD"}, "[8]": {"conditions": "10 mg/kg, non-infected PXB mice, 10 mg/kg p.o., animal 201, read-out: Plasma conc."}, "[9]": {"conditions": "10 mg/kg, non-infected PXB mice, 10 mg/kg p.o., animal 202, read-out: Plasma conc."}, "[10]": {"conditions": "10 mg/kg, non-infected PXB mice, 10 mg/kg p.o., animal 203, read-out: Plasma conc."}, "[11]": {"conditions": "30 mg/kg, non-infected PXB mice, 30 mg/kg p.o., animal 301, read-out: Plasma conc."}, "[12]": {"conditions": "30 mg/kg, non-infected PXB mice, 30 mg/kg p.o., animal 302, read-out: Plasma conc."}, "[13]": {"conditions": "30 mg/kg, non-infected PXB mice, 30 mg/kg p.o., animal 303, read-out: Plasma conc."}, "[14]": {"conditions": "30 mg/kg, non-infected PXB mice, 30 mg/kg p.o., mean of 3 animals, read-out: Plasma conc. Mean ± SD"}, "[15]": {"conditions": "30 mg/kg, non-infected PXB mice, 30 mg/kg p.o., animal 401, read-out: Plasma conc."}, "[16]": {"conditions": "30 mg/kg, non-infected PXB mice, 30 mg/kg p.o., animal 402, read-out: Plasma conc."}, "[17]": {"conditions": "30 mg/kg, non-infected PXB mice, 30 mg/kg p.o., animal 403, read-out: Plasma conc."}}, "note": "Like-named read-outs stand apart in the source and are kept apart here."}
{"smiles": "CCCCC1CN(c2ccccc2)c2cc(SC)c(O/C=C(\\F)C(=O)O)cc2S(=O)(=O)N1C", "note": "(stereo not shown) [Compound 1, (Z)-3-((3-butyl-2-methyl-7-(methylthio)-1,1-dioxido-5-phenyl-2,3,4,5-tetrahydro-1,2,5-benzothiadiazepin-8-yl)oxy)-2-fluoroacrylic acid]", "values": [{"measurement": "plasma exposure versus dose", "setting": "[1]; 10 and 30 mg/kg p.o.", "value": "increased with increased dose"}, {"measurement": "detection in plasma", "setting": "[1]; 10 and 30 mg/kg p.o., non-infected PXB mice", "value": "detected in plasma throughout the 24-hour time period"}, {"measurement": "concentration at 0.5 h", "setting": "[1]; [4]", "value": 1.29, "unit": "µg/mL"}, {"measurement": "concentration at 0.5 h", "setting": "[1]; [5]", "value": 2.65, "unit": "µg/mL"}, {"measurement": "concentration at 0.5 h", "setting": "[1]; [6]", "value": 0.727, "unit": "µg/mL"}, {"measurement": "concentration at 0.5 h", "setting": "[1]; [7]", "value": "1.56 ± 0.99", "unit": "µg/mL"}, {"measurement": "concentration at 1 h", "setting": "[1]; [8]", "value": 0.492, "unit": "µg/mL"}, {"measurement": "concentration at 1 h", "setting": "[1]; [9]", "value": 0.763, "unit": "µg/mL"}, {"measurement": "concentration at 1 h", "setting": "[1]; [10]", "value": 1.81, "unit": "µg/mL"}, {"measurement": "concentration at 1 h", "setting": "[1]; [7]", "value": "1.02 ± 0.69", "unit": "µg/mL"}, {"measurement": "concentration at 2 h", "setting": "[1]; [4]", "value": 0.194, "unit": "µg/mL"}, {"measurement": "concentration at 2 h", "setting": "[1]; [5]", "value": 0.322, "unit": "µg/mL"}, {"measurement": "concentration at 2 h", "setting": "[1]; [6]", "value": 0.177, "unit": "µg/mL"}, {"measurement": "concentration at 2 h", "setting": "[1]; [7]", "value": "0.231 ± 0.079", "unit": "µg/mL"}, {"measurement": "concentration at 4 h", "setting": "[1]; [8]", "value": 0.111, "unit": "µg/mL"}, {"measurement": "concentration at 4 h", "setting": "[1]; [9]", "value": 0.0614, "unit": "µg/mL"}, {"measurement": "concentration at 4 h", "setting": "[1]; [10]", "value": 0.587, "unit": "µg/mL"}, {"measurement": "concentration at 4 h", "setting": "[1]; [7]", "value": "0.253 ± 0.29", "unit": "µg/mL"}, {"measurement": "concentration at 6 h", "setting": "[1]; [4]", "value": 0.0462, "unit": "µg/mL"}, {"measurement": "concentration at 6 h", "setting": "[1]; [5]", "value": 0.0635, "unit": "µg/mL"}, {"measurement": "concentration at 6 h", "setting": "[1]; [6]", "value": 0.13, "unit": "µg/mL"}, {"measurement": "concentration at 6 h", "setting": "[1]; [7]", "value": "0.08 ± 0.044", "unit": "µg/mL"}, {"measurement": "concentration at 24 h", "setting": "[1]; [8]", "value": 0.0253, "unit": "µg/mL"}, {"measurement": "concentration at 24 h", "setting": "[1]; [9]", "value": 0.0272, "unit": "µg/mL"}, {"measurement": "concentration at 24 h", "setting": "[1]; [10]", "value": 0.0014, "unit": "µg/mL"}, {"measurement": "concentration at 24 h", "setting": "[1]; [7]", "value": "0.018 ± 0.014", "unit": "µg/mL"}, {"measurement": "concentration at 0.5 h", "setting": "[1]; [11]", "value": 1.88, "unit": "µg/mL"}, {"measurement": "concentration at 0.5 h", "setting": "[1]; [12]", "value": 2.91, "unit": "µg/mL"}, {"measurement": "concentration at 0.5 h", "setting": "[1]; [13]", "value": 6.81, "unit": "µg/mL"}, {"measurement": "concentration at 0.5 h", "setting": "[1]; [14]", "value": "3.87 ± 2.6", "unit": "µg/mL"}, {"measurement": "concentration at 1 h", "setting": "[1]; [15]", "value": 4.56, "unit": "µg/mL"}, {"measurement": "concentration at 1 h", "setting": "[1]; [16]", "value": 5.32, "unit": "µg/mL"}, {"measurement": "concentration at 1 h", "setting": "[1]; [17]", "value": 1.47, "unit": "µg/mL"}, {"measurement": "concentration at 1 h", "setting": "[1]; [14]", "value": "3.78 ± 2", "unit": "µg/mL"}, {"measurement": "concentration at 2 h", "setting": "[1]; [11]", "value": 2.42, "unit": "µg/mL"}, {"measurement": "concentration at 2 h", "setting": "[1]; [12]", "value": 0.59, "unit": "µg/mL"}, {"measurement": "concentration at 2 h", "setting": "[1]; [13]", "value": 3.04, "unit": "µg/mL"}, {"measurement": "concentration at 2 h", "setting": "[1]; [14]", "value": "2.02 ± 1.3", "unit": "µg/mL"}, {"measurement": "concentration at 4 h", "setting": "[1]; [15]", "value": 1.12, "unit": "µg/mL"}, {"measurement": "concentration at 4 h", "setting": "[1]; [16]", "value": 1.09, "unit": "µg/mL"}, {"measurement": "concentration at 4 h", "setting": "[1]; [17]", "value": 0.217, "unit": "µg/mL"}, {"measurement": "concentration at 4 h", "setting": "[1]; [14]", "value": "0.811 ± 0.51", "unit": "µg/mL"}, {"measurement": "concentration at 6 h", "setting": "[1]; [11]", "value": 0.554, "unit": "µg/mL"}, {"measurement": "concentration at 6 h", "setting": "[1]; [12]", "value": 0.0998, "unit": "µg/mL"}, {"measurement": "concentration at 6 h", "setting": "[1]; [13]", "value": 1.49, "unit": "µg/mL"}, {"measurement": "concentration at 6 h", "setting": "[1]; [14]", "value": "0.715 ± 0.7", "unit": "µg/mL"}, {"measurement": "concentration at 24 h", "setting": "[1]; [15]", "value": 0.23, "unit": "µg/mL"}, {"measurement": "concentration at 24 h", "setting": "[1]; [16]", "value": 0.229, "unit": "µg/mL"}, {"measurement": "concentration at 24 h", "setting": "[1]; [17]", "value": 0.148, "unit": "µg/mL"}, {"measurement": "concentration at 24 h", "setting": "[1]; [14]", "value": "0.202 ± 0.047", "unit": "µg/mL"}, {"measurement": "Ki", "setting": "[2]", "value": 2.41, "unit": "µM"}, {"measurement": "inhibition at 1 µM", "setting": "[3]", "value": "> 50", "unit": "%"}]}
